From patent publication US20140120087A1, “TRIAZOLOPYRIDINES” (BAYER INTELLECTUAL PROPERTY GMBH, priority 2011, published 2014)

Experiments:
Mps-1 kinase [1] = target: T1, Mps-1 kinase (Homo sapiens, UniProt P33981); assay: Mps-1 kinase assay with 2 mM ATP (TR-FRET)
T1 sequence (P33981 1-857): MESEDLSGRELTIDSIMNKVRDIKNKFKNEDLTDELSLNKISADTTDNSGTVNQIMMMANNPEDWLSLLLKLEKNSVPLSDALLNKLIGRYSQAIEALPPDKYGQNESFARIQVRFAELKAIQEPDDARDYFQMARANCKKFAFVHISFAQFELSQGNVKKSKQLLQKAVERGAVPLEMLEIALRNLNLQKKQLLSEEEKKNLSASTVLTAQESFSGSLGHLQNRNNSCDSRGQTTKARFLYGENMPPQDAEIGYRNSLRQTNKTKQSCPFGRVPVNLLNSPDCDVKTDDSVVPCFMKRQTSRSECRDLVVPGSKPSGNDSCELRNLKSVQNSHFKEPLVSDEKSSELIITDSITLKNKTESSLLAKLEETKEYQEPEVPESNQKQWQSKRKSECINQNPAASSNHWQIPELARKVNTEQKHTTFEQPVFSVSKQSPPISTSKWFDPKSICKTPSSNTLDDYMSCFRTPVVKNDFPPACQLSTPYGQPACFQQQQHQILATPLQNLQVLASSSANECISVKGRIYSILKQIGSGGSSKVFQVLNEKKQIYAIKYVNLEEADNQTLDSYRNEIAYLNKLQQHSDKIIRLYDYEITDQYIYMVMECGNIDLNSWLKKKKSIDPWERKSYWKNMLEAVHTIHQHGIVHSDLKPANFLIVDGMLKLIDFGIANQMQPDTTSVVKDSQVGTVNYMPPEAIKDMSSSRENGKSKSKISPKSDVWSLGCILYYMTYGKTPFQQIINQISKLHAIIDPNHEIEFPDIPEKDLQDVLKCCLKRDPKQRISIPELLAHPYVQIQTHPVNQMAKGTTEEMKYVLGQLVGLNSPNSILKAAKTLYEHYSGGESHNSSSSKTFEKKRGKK

Mps-1 kinase [2] = target: T1, Mps-1 kinase; assay: Mps-1 kinase assay with 10 μM ATP (TR-FRET)

Compound | IC50 (Mps-1 kinase [1]) | IC50 (Mps-1 kinase [2])
Cc1cc(C(=O)NCCF)ccc1Nc1nc2ccc(-c3ccc(C(=O)NCc4ccc(F)cc4)cc3)cn2n1 [Example 12.67, 4-[(6-{4-[(4-fluorobenzyl)-carbamoyl]phenyl}[1,2,4]triazolo [1,5-a]pyridin-2-yl)-amino]-N-(2-fluoroethyl)-3-methylbenzamide] | 5 nM | ≤ 1 nM
COc1cc(C(=O)N(C)CCN(C)C)ccc1Nc1nc2ccc(-c3ccc(C(=O)NCc4ccc(F)cc4)cc3)cn2n1 [Example 12.49, N-[2-(dimethylamino)ethyl]-4-[(6-{4-[(4-fluorobenzyl)-carbamoyl]phenyl}[1,2,4]triazolo [1,5-a]pyridin-2-yl)-amino]-3-methoxy-N-methylbenzamide] | 3.4 nM | ≤ 1 nM
O=C(NCc1ccc(F)cc1)c1ccc(-c2ccc3nc(Nc4ccc(F)cc4OC(F)F)nn3c2)cc1 [Example 12.63, 4-(2-{[2-(difluoromethoxy)-4-fluorophenyl]amino}-[1,2,4]triazolo[1,5-a]pyridin-6-yl)-N-(4-fluoro-benzyl)benzamide] | 26 nM | ≤ 1 nM
COc1cc(S(C)(=O)=O)ccc1Nc1nc2ccc(-c3ccc(C(=O)NCc4ccc(F)cc4F)cc3)cn2n1 [Example 11.01, N-(2,4-difluorobenzyl)-4-(2-{[2-methoxy-4-(methylsulfonyl)phenyl]amino}-[1,2,4]triazolo[1,5-α]pyridin-6-yl)benzamide] | 11 nM | ≤ 1 nM
COc1cc(C(=O)NCC(F)(F)F)ccc1Nc1nc2ccc(-c3ccc(C(=O)NCc4ccc(Cl)cc4)cc3)cn2n1 [Example 12.72, 4-[(6-{4-[(4-chlorobenzyl)-carbamoyl]phenyl}[1,2,4]triazolo [1,5-a]pyridin-2-yl)-amino]-3-methoxy-N-(2,2,2-trifluoroethyl)benzamide] | 16 nM | ≤ 1 nM
COc1cc(S(C)(=N)=O)ccc1Nc1nc2ccc(-c3ccc(C(=O)NCc4ccc(F)cc4)cc3)cn2n1 (stereo not drawn) [Example 12.83, N-(4-fluorobenzyl)-4-(2-{[2-methoxy-4-(S-methylsulfonimidoyl)phenyl]-amino}[1,2,4]triazolo[1,5-α]pyridin-6-yl)benzamide] | 1.8 nM | ≤ 1 nM
COc1cc(C(C)(C)O)ccc1Nc1nc2ccc(-c3ccc(C(=O)NCc4ccc(F)cc4)c(OC)c3)cn2n1 [Example 12.81, N-(4-fluorobenzyl)-4-(2-{[4-(2-hydroxypropan-2-yl)-2-methoxyphenyl]amino}-[1,2,4]triazolo[1,5-a]pyridin-6-yl)-2-methoxybenzamide] | 7.3 nM | ≤ 1 nM
COc1cc(S(C)(=O)=O)ccc1Nc1nc2ccc(-c3ccc(NC(=O)Cc4ccccc4)cc3)cn2n1 [Example 12.42, N-[4-(2-{[2-methoxy-4-(methylsulfonyl)phenyl]-amino}[1,2,4]triazolo[1,5-a]pyridin-6-yl)phenyl]-2-phenylacetamide] | 12 nM | ≤ 1 nM
COc1cc(C(=O)NCC(F)F)ccc1Nc1nc2ccc(-c3ccc(C(=O)NCc4ccc(F)cc4)cc3)cn2n1 [Example 12.47, N-(2,2-difluoroethyl)-4-[(6-{4-[(4-fluorobenzyl)-carbamoyl]phenyl}[1,2,4]triazolo [1,5-a]pyridin-2-yl)amino]-3-methoxy-benzamide] | 2.4 nM | ≤ 1 nM
COc1cc(S(C)(=O)=O)c(F)cc1Nc1nc2ccc(-c3ccc(NC(=O)Cc4ccc(F)cc4)cc3)cn2n1 [Example 12.12, N-[4-(2-{[5-fluoro-2-methoxy-4-(methylsulfonyl)-phenyl]amino}[1,2,4]-triazolo[1,5-a]pyridin-6-yl)phenyl]-2-(4-fluoro-phenyl)acetamide] | 13 nM | ≤ 1 nM
COc1cc(S(C)(=O)=O)ccc1Nc1nc2ccc(-c3ccc(C(=O)NCc4ccc(C)cc4)cc3)cn2n1 [Example 12.76, 4-(2-{[2-methoxy-4-(methyl-sulfonyl)phenyl]amino}-[1,2,4]triazolo[1,5-a]pyridin-6-yl)-N-(4-methyl-benzyl)benzamide] | 7.4 nM | ≤ 1 nM
Cc1ccc(CNC(=O)c2ccc(-c3ccc4nc(Nc5ccc(S(C)(=O)=O)cc5C)nn4c3)cc2)cc1 [Example 12.77, N-(4-methylbenzyl)-4-(2-{[2-methyl-4-(methylsulfonyl)-phenyl]amino}[1,2,4]triazolo [1,5-a]pyridin-6-yl)-benzamide] | 11 nM | ≤ 1 nM

Stronger by IC50 (Mps-1 kinase [1]), values ahead:

IC50 (Mps-1 kinase [1]) | IC50 (Mps-1 kinase [2]) | Compound
≤ 1 nM | ≤ 1 nM | CCS(=O)(=O)c1ccc(Nc2nc3ccc(-c4ccc(NC(=O)Cc5ccc(F)cc5)cc4)cn3n2)c(OC(F)F)c1 [Example 01.36, N-[4-(2-{[2-(difluoromethoxy)-4-(ethylsulfonyl)phenyl]amino}[1,2,4]-triazolo[1,5-α]pyridin-6-yl)phenyl]-2-(4-fluorophenyl)acetamide]
≤ 1 nM | ≤ 1 nM | CS(=O)(=O)c1ccc(Nc2nc3ccc(-c4ccc(C(=O)NCc5ccc(F)cc5)cc4)cn3n2)c(OCC(F)(F)F)c1 [Example 02.27, N-(4-fluorobenzyl)-4-(2-{[4-(methylsulfonyl)-2-(2,2,2-trifluoroethoxy)-phenyl]amino}[1,2,4]triazolo[1,5-α]pyridin-6-yl)benzamide]
≤ 1 nM | ≤ 1 nM | CC(C)(CO)NC(=O)c1ccc(Nc2nc3ccc(-c4ccc(NC(=O)Cc5ccc(F)cc5)cc4)cn3n2)c(OCC(F)(F)F)c1 [Example 12.22, 4-{[6-(4-{[(4-fluorophenyl)-acetyl]amino}phenyl)[1,2,4]triazolo[1,5-a]pyridin-2-yl]amino}-N-(1-hydroxy-2-methylpropan-2-yl)-3-(2,2,2-trifluoroethoxy)benzamide]
≤ 1 nM | ≤ 1 nM | CN(C)CCNC(=O)c1ccc(Nc2nc3ccc(-c4ccc(C(=O)NCc5ccc(F)cc5)cc4)cn3n2)c(OCC(F)(F)F)c1 [Example 12.58, N-[2-(dimethylamino)ethyl]-4-[(6-{4-[(4-fluorobenzyl)-carbamoyl]phenyl}[1,2,4]triazolo [1,5-a]pyridin-2-yl)-amino]-3-(2,2,2-trifluoro-ethoxy)benzamide]
≤ 1 nM | ≤ 1 nM | COc1cc(C(=O)NCCS(C)(=O)=O)ccc1Nc1nc2ccc(-c3ccc(NC(=O)Cc4ccc(F)cc4)cc3)cn2n1 [Example 12.03]
≤ 1 nM | ≤ 1 nM | CS(=O)(=O)CCNC(=O)c1ccc(Nc2nc3ccc(-c4ccc(NC(=O)Cc5ccc(F)cc5)cc4)cn3n2)c(OCC(F)(F)F)c1 [Example 12.21, 4-{[6-(4-{[(4-fluorophenyl)-acetyl]amino}phenyl)[1,2,4]triazolo[1,5-a]pyridin-2-yl]amino}-N-[2-(methyl-sulfonyl)ethyl]-3-(2,2,2-trifluoroethoxy)benzamide]
1.5 nM | ≤ 1 nM | COc1ccc(Nc2nc3ccc(-c4ccc(NC(=O)Cc5ccc(F)cc5)cc4)cn3n2)c(OC)c1 [Example 12.18, N-(4-{2-[(2,4-dimethoxy-phenyl)amino][1,2,4]-triazolo[1,5-a]pyridin-6-yl}phenyl)-2-(4-fluoro-phenyl)acetamide]
1.3 nM | ≤ 1 nM | COc1cc(C(=O)NCCN(C)C)ccc1Nc1nc2ccc(-c3ccc(C(=O)NCc4ccc(F)cc4)cc3)cn2n1 [Example 12.48, N-[2-(dimethylamino)ethyl]-4-[(6-{4-[(4-fluorobenzyl)-carbamoyl]phenyl}[1,2,4]triazolo [1,5-a]pyridin-2-yl)amino]-3-methoxy-benzamide]
